Measured values: patent EP1997826A2, “Synthetic ligands for immunoglobulins and pharmaceutical compositions containing them” (Tecnogen S.p.A., priority 2007, dated 2008)
Where two headings read alike, the source gives them in different places.

Assays:
[1] = tested on: male rats of the CD1 species; type: in vivo, rat; settings: for Inhibition of skin reaction (%): intradermal with IgE ascitic fluid; for dose inhibiting the inflammatory reaction completely: rat, intradermal
Experimental: Passive cutaneous anaphylaxis in the rat was induced according to the procedure described by Ovary et al., 1952, Int. Arch. Allergy Appl. Immunol. 3:293-301. Rat ascitic fluid containing specific IgE against the ovalbumin antigen was injected in the shaved back of male rats of the CD1 species (Charles River, Italy). Ascitic fluid at different dilutions (from 20 to 20 000 times in PBS) was applied by intradermal injections at a volume of 50 µl, permitting the IgEs present in the ascitic fluid to bind to the FcεRs of the local mast cells, sensitizing them. On the next day, 1 mg of ovalbumin and the dye Evans Blue at a concentration of 2.0%, dissolved in 1 ml of PBS, were injected intravenously. After 30 minutes, the appearance, on the rats' backs, of stained areas in the dermis (wheals) with extent and intensity of staining proportional to the quantity of antigen-specific IgEs injected with the ascitic fluid, was observed. The experiment included a negative control, represented by the intradermal injection of 50 µl of PBS without ascitic fluid, and there was no corresponding appearance of staining. The rats were sacrificed and comparative evaluation of the dimensions and intensity of coloration of the wheals that developed was carried out by densitometric analysis of colour photographs of the animals taken with a single camera, a single film and in the same conditions of exposure times, lighting and orientation. The densitometric analyses were performed with the aid of the IMAGE PRO-PLUS software (Media Cybernetics, Inc.). On the basis of the results obtained in the IgE-FcεR linear binding assay (absence of inhibitors), selecting as reference point the value of dilution of the ascitic fluid at which the most intense inflammatory reaction was observed (the wheal with most intense staining, and consequently the maximum signal on the densitometer), an assay of inhibition of the allergic reaction was performed using peptide lB and the comparative peptide. For this purpose, 25 µl of ascitic fluid containing IgE suitably diluted was incubated with 25 µl of PBS containing different doses of the test compounds (0.025, 0.25, 2.5, 25, 250 and 2500 µg). A single rat was used for each compound. The back of each rat was shaved and was then subdivided into 8 sections by making marks to delimit the zones in which the injections were made. The mixture (50 µl) containing the ascitic fluid and the compounds at the various doses was administered intradermally at each selected point. An injection of 25 µl of ascitic fluid suitably diluted and incubated with 25 µl of PBS was used as the positive control, and 50 µl of PBS was used as the negative control. After 24 hours, the antigen was injected together with the Evans Blue dye as previously described and thirty minutes later, corresponding to the injection sites on the rats' backs, the appearance of coloured wheals was observed, with intensity and dimensions markedly less than in the zones in which higher concentrations of compounds had been applied.

[2] = tested on: female mice of the Balb/c strain; type: in vivo, mouse; settings: for Inhibition of skin reaction (%): 30 minutes before antigen; for dose producing 50% inhibition of the local allergic reaction: mouse, intraperitoneally
Experimental: Cutaneous passive anaphylaxis on the mouse ear was induced according to the procedure described by Inagaki et al., Int. Arch. Allergy Appl. Immunol. 1985, 78:113-117. Rat ascitic fluid containing specific IgEs against the ovalbumin antigen was injected in the ear of female mice of the Balb/c strain. Ascitic fluid at different dilutions (5-10-20 times in PBS) was applied by intradermal injections at a volume of 10 µl, permitting the IgEs present in the ascitic fluid to bind to the FcεRs of the local mast cells, sensitizing them. After 48 hours, 0.25 mg of ovalbumin and Evans Blue dye at a concentration of 1.8%, dissolved in 70 µl of PBS, were injected intravenously. After 30 minutes, the appearance, on the mouse ear, of stained areas in the dermis, with extent and intensity of staining proportional to the quantity of antigen-specific IgEs injected with the ascitic fluid, was observed. The experiment included a negative control, represented by the intradermal injection of 10 µl of PBS without ascitic fluid, and there was no corresponding appearance of staining. The mice were sacrificed and the ears were removed for extraction and measurement of the dye discharged in the skin reaction. Each ear was dissolved in 0.5 ml of 1 M KOH, incubating at 37°C for 16 hours. After incubation, 2 ml of a mixture of 0.6M phosphoric acid and acetone in the ratio 5:13 (v:v) was added. The sample was then stirred and filtered, and finally the amount of dye was determined with a spectrophotometer, taking readings at 620 nm. On the basis of the results obtained in the IgE-FcER linear binding assay, selecting as reference point the value of dilution of the ascitic fluid at which the most intense inflammatory reaction was observed, an assay of inhibition of the allergic reaction was performed using peptide IB and the comparative peptide. As described previously, intradermal injections of 10 µl of ascitic fluid, diluted 20 times in PBS, were applied to the ear lobe of a group of Balb/c mice, permitting the IgEs present in the ascitic fluid to bind to the FcεRs of the local mast cells, sensitizing them. After two days, various amounts of the peptides under investigation were dissolved in 100 µl of PBS and administered intraperitoneally to the sensitized mice. In particular, doses corresponding to 0.5 - 1 - 5 - 10 - 50 mg of peptide per kg of body weight of the mouse were used. 100 µl of PBS was injected as negative control. After 30 minutes the mice received the intravenous injection of the solution of ovalbumin and Evans Blue dye.

[3] = molar value printed in brackets

## (H-L-Cys(p-MeOBzl)-D-Arg-D-Thr-D-Tyr)4-L-Lys2-L-Lys-L-Lys-OH [Peptide IB]
[1]; Dose of Peptide 0.025 (µg/ml)
  Inhibition of skin reaction (%): 35%
[1]; Dose of Peptide 0.25 (µg/ml)
  Inhibition of skin reaction (%): 60%
[1]; Dose of Peptide 2.5 (µg/ml)
  Inhibition of skin reaction (%): 100%
[1]; Dose of Peptide 25 (µg/ml)
  Inhibition of skin reaction (%): 100%
[1]; Dose of Peptide 250 (µg/ml)
  Inhibition of skin reaction (%): 100%
[1]; Dose of Peptide 2500 (µg/ml)
  Inhibition of skin reaction (%): 100%
[1]; rat passive cutaneous anaphylaxis
  activity greater than the activity of the comparative peptide: approx. 15 times
[1]
  dose inhibiting the inflammatory reaction completely: 2.5 µg
[1]; [3]
  dose inhibiting the inflammatory reaction completely: approx. 0.8 nmoles
[2]; Dose of Peptide 0.5 mg/kg intraperitoneally
  Inhibition of skin reaction (%): 10%
[2]; Dose of Peptide 1.0 mg/kg intraperitoneally
  Inhibition of skin reaction (%): 50%
[2]; Dose of Peptide 5.0 mg/kg intraperitoneally
  Inhibition of skin reaction (%): 65%
[2]; Dose of Peptide 10.0 mg/kg intraperitoneally
  Inhibition of skin reaction (%): 71%
[2]; Dose of Peptide 50.0 mg/kg intraperitoneally
  Inhibition of skin reaction (%): 85%
[2]; mouse ear passive cutaneous anaphylaxis
  activity greater than the activity of the comparative peptide: about 7 times
[2]
  dose producing 50% inhibition of the local allergic reaction: 1 mg/kg

## C[C@H](O)[C@@H](NC(=O)[C@H](N)CCCNC(=N)N)C(=O)N[C@H](Cc1ccc(O)cc1)C(=O)NCCCC[C@H](NC(=O)[C@@H](Cc1ccc(O)cc1)NC(=O)[C@H](NC(=O)[C@H](N)CCCNC(=N)N)[C@H](C)O)C(=O)NCCCC[C@H](NC(=O)[C@H](CCCCNC(=O)[C@@H](Cc1ccc(O)cc1)NC(=O)[C@H](NC(=O)[C@H](N)CCCNC(=N)N)[C@H](C)O)NC(=O)[C@@H](Cc1ccc(O)cc1)NC(=O)[C@H](NC(=O)[C@H](N)CCCNC(=N)N)[C@H](C)O)C(=O)NCC(=O)O [Comparative peptide, (H-D-Arg-D-Thr-D-Tyr-)4-L-Lys2-L-Lys-Gly-OH, reference compound]
[1]
  dose inhibiting the inflammatory reaction completely: 25 µg
[1]; [3]
  dose inhibiting the inflammatory reaction completely: 11.6 nmol
[2]
  dose producing 50% inhibition of the local allergic reaction: about 7 mg/kg
